In patent US8563503B2, “Antibiotic, its nucleotide sequence, methods of construction and uses thereof” (Protein Design Lab. Ltd., priority 2011, dated 2013):

Key:
[1] = system: Staphylococcus aureus ATCC 29213; test: MIC against the infecting strain (Table 2); type: cell-based; details: ATCC29213
Description: (§1) (3) Culture Solution • MH Broth Culture Solution: 25 g was added into […] distilled water, heat to dissolve, subpackaged, autoclaved at 116° C. for 20 minutes, and MH Solid Culture Medium, 36 g was added into 1000 ml distilled water, autoclaved at 116° C. for 20 minutes, used for drug sensitive test of Gram-positive and negative aerobic bacteria. • Blood culture solution for Enterococcus faecalis, which was prepared by adding defibration rabbit blood into the MH culture solution by 5-10% and cultured at 37° C. in 5% CO2 for 24 hours. 2. Experimental Methods (1) The Measurement of Minimum Inhibitory Concentration (MIC) • The Minimum Inhibitory Concentration (MIC) of PMC-SA1 was measured by Agar Doubling Dilution Method. The bacterium was inoculated on the surface of agar plate containing different concentration of drugs by multipoint inoculate instrument (Deneley A400). The bacterial content per point was 10^5 CFU/ml. After incubated at 37° C. for 18-24 hours, the result can be observed. The least concentration of drugs in plate culture solution without bacterium growing was Minimum Inhibitory Concentration (MIC) of the drug to the said bacteria. 3. Results

[2] = system: Staphylococcus aureus MRSA BAA-42; test: MIC against the infecting strain (Table 2); type: cell-based; details: Staphylococcus aureus MRSA BAA-42
Description: as §1

Enterococcus ATCC 700802 = test: Protection test in vivo (intravenous injection) of infected mice; set-up: species or system Kungming mice; details: mice, infected with 7.0 × 10^6 cfu/ml i.p., drug once intravenous
Description: (§2) The drugs used in this embodiment were same with that used in embodiment 4.
(§3) The above drugs were dissolved and diluted by sterilized water, and the injection concentrations of each drug were 10 mg/kg, 5 mg/kg and 2.5 mg/kg.
(§4) After given intraperitoneal injection of fatal dose of above-mentioned bacteria, the mice of each drug experimental group respectively were given once intravenous injection of the drug by 10 mg, 5 mg, 2.5 mg/kg. The results were observed per 24 hours for 7-14 days. The positive result is mice's death.

[3] = system: Staphylococcus aureus ATCC 29213; test: as above; set-up: species or system Kungming mice; details: mice, infected with 4.6 × 10^5 cfu/ml i.p., drug once intravenous
Description: as §2, §3, §4

[4] = system: Staphylococcus aureus MRSA BAA-42; test: as above; set-up: species or system Kungming mice; details: mice, infected with 6.5 × 10^5 cfu/ml i.p., drug once intravenous
Description: as §2, §3, §4

E. coli 02-1-65 = test: as above; set-up: species or system Kungming mice; details: mice, infected with 3.8 × 10^5 cfu/ml i.p., drug once intravenous
Description: as §2, §3, §4

[5] = system: Multiple-drug resistance Pseudomonas aeruginosa (clinical separated strain 13280); test: In vivo protection of mice infected by multiple-drug resistance Pseudomonas aeruginosa; set-up: species or system Kungming mice; details: fatal dose i.p.
Excerpt: (1) Drugs • PMC-PA, piperacillin, amikacin, ceftazidime, levofloxacin.
Multiple-drug resistance Pseudomonas aeruginosa (clinical separated strain 13280, isolated by laboratory bacteria room of West China Hospital)
Kungming mice (n=60), half male and half female, weighing 15-20 g were given intraperitoneal injection of multiple-drug resistance Pseudomonas aeruginosa, therein PMC-PA, piperacillin, amikacin, ceftazidime and levofloxacin experimental group were set respectively as 10 mice per group, while the control group was set as 10 mice per group. After given intraperitoneal injection of fatal dose of the bacterium, the mice in drug experimental groups respectively were given an intravenous injection of one kind of above drugs, the results were observed per 24 hours for continuous 10 days. The positive result was mouse's death.

[6] = system: methicillin-resistant Staphylococcus aureus ATCC BAA-42; test: Bacteria growth curve (A595 nm), comparison of the novel antibiotics; type: cell-based; details: drug 5 μg/ml, 37° C., A595 nm per hour
Description: The following experiment was set for comparing bacteriostasis effects of 6 kinds of the novel antibiotics. The experimental bacteriaum was United States Standard Strain methicillin-resistant Staphylococcus aureus ATCC BAA-42. 5 microliter of bacteria solution (10^6 CFU/ml level bacterium amount) was added into 10 ml culture solution containing 1% peptone, 1% NaCl, 0.5% yeast extract, 0.5% glucose and 0.1% K2HPO4, total of 8 groups were prepared. The first group as control was added 0.3 M NaCl+50 mM boric acid buffer fluid by the same volume as that of antibiosis polypeptide liquid added in any experimental groups, the second group was added penicillin G sodium by 5 μg/ml, PMC-SA1, PMC-SA2, PMC-SA3, PMC-SA4, PMC-SE and PMC-PA were added in the other experimental groups with preservative fluid being 0.3 M NaCl+50 mM boric acid buffer fluid by 5 ug/ml.
The solution of above groups was put into 100 ml conical flask, 200 rpm, grew at 37° C. 100 μl was sampled per hour, and added onto 96-pore ELISA plate and measured bacteria grown cloudiness by spectrophotometer (A595 nm) color comparison. The bacteria growth curve was drawn up to compare the bacteriostasis efficacy of antibiosis polypeptide.

Molecule: Cc1nnc(SCC2=C(C(=O)[O-])N3C(=O)[C@@H](NC(=O)Cn4cnnn4)[C@H]3SC2)s1.[Na+] [Cefazolin, Cefazolin Sodium]
- MIC [1]: 7 µg/mL
- MIC [2]: 6 µg/mL
- ED50 (Enterococcus ATCC 700802): >10 mg/kg
- ED50 [3]: 29.11 mg/kg
- ED50 [4]: 9.04 mg/kg
- ED50 (E. coli 02-1-65): >30 mg/kg

Molecule: NCC[C@H](O)C(=O)N[C@@H]1C[C@H](N)[C@@H](O[C@H]2O[C@H](CN)[C@@H](O)[C@H](O)[C@H]2O)[C@H](O)[C@H]1O[C@H]1O[C@H](CO)[C@@H](O)[C@H](N)[C@H]1O [amikacin]
- time in which mice were all dead ([5]; 5 mg/kg intravenous): ≤ 4 days

Molecule: CC(C)(O/N=C(\C(=O)N[C@@H]1C(=O)N2C(C(=O)[O-])=C(C[n+]3ccccc3)CS[C@H]12)c1csc(N)n1)C(=O)O [ceftazidime]
- survival rate of mice in 10 days ([5]; 50 mg/kg intravenous): 20%

Molecule: C[C@H]1COc2c(N3CCN(C)CC3)c(F)cc3c(=O)c(C(=O)O)cn1c23 [levofloxacin]
- survival rate of mice in 10 days ([5]; 5 mg/kg intravenous): 40%

Molecule: CCN1CCN(C(=O)N[C@@H](C(=O)N[C@@H]2C(=O)N3[C@@H]2SC(C)(C)[C@@H]3C(=O)O)c2ccccc2)C(=O)C1=O [piperacillin]
- time in which mice were all dead ([5]; 50 mg/kg intravenous): ≤ 3 days

B1: PMC-SA4: Staphylococcus aureus pheromone AgrD IV linked to C-terminus of allosteric colicin Ia′; SEQ ID NO. 19; plasmid pBHC-SA4 (protein)
chain: SDPVRITNPAAESLGYDSDGREIMGVDIYLNPPRVDVFKGTPPAWSSFGNKTIWGGNEWVDDSPTRSDIEKRDKEITAYKNTLSAQQKENENKRTEAGKRLSAAIAAREKDENTLKTLRAGNADAADITRQEFRLLQAELREYGFRTEIAGYDALRLHTESRMLFADADSLRISPREARSLIEQAEKRQKDAQNADKKAADMLAEYERRKGILDTRLSELEKNGGAALAVLDAQQARLLGQQTRNDRAISEARNKLSSVTESLNTARNALTRAEQQLTQQKNTPDGKTIVSPEKFPGRSSTNHSIVVSGDPRFAGTIKITTSAVIDNRANLNYLLSHSGLDYKRNILNDRNPVVTEDVEGDKKIYNAEVAEWDKLRQRLLDARNKITSAESAVNSARNNLSARTNEQKHANDALNALLKEKENIRNQLSGINQKIAEEKRKQDELKATKDAINFTTEFLKSVSEKYGAKAEQLAREMAGQAKGKKIRNVEEALKTYEKYRADINKKINAKDRAAIAAALESVKLSDISSNLNRFSRGLGYAGKFTSLADWITEFGKAVRTENWRPLFVKTETIIAGNAATALVALVFSILTGSALGIIGYGLLMAVTGALIDESLVEKANKFWGIYSTCYFIM
modifications: The peptide of PMC-SA4
notes: Staphylococcus aureus pheromone AgrD IV linked to C-terminus of allosteric colicin Ia′; 19; plasmid pBHC-SA4
- bacteriostasis effect on growth of methicillin-resistant Staphylococcus aureus (bacteria growth curve) [6]: less better

B2: PMC-SA2: Staphylococcus aureus pheromone AgrD II linked to C-terminus of allosteric colicin Ia′; SEQ ID NO. 15; plasmid pBHC-SA2 (protein)
chain: SDPVRITNPAAESLGYDSDGREIMAVDIYLNPPRVDVFKGTPPAWSSFGNKTIWGGNEWVDDSPTRSDIEKRDKEITAYKNTLSAQQKENENKRTEAGKRLSAAIAAREKDENTLKTLRAGNADAADITRQEFRLLQAELREYGFRTEIAGYDALRLHTESRMLFADADSLRISPREARSLIEQAEKRQKDAQNADKKAADMLAEYERRKGILDTRLSELEKNGGAALAVLDAQQARLLGQQTRNDRAISEARNKLSSVTESLNTARNALTRAEQQLTQQKNTPDGKTIVSPEKFPGRSSTNHSIVVSGDPRFAGTIKITTSAVIDNRANLNYLLSHSGLDYKRNILNDRNPVVTEDVEGDKKIYNAEVAEWDKLRQRLLDARNKITSAESAVNSARNNLSARTNEQKHANDALNALLKEKENIRNQLSGINQKIAEEKRKQDELKATKDAINFTTEFLKSVSEKYGAKAEQLAREMAGQAKGKKIRNVEEALKTYEKYRADINKKINAKDRAAIAAALESVKLSDISSNLNRFSRGLGYAGKFTSLADWITEFGKAVRTENWRPLFVKTETIIAGNAATALVALVFSILTGSALGIIGYGLLMAVTGALIDESLVEKANKFWGIGVNACSSLF
modifications: The peptide of PMC-SA2
notes: Staphylococcus aureus pheromone AgrD II linked to C-terminus of allosteric colicin Ia′; 15; plasmid pBHC-SA2
- bacteriostasis effect on growth of methicillin-resistant Staphylococcus aureus (bacteria growth curve) [6]: still less better

B3: PMC-SA3: Staphylococcus aureus pheromone AgrD III linked to C-terminus of allosteric colicin Ia′; SEQ ID NO. 17; plasmid pBHC-SA3 (protein)
chain: SDPVRITNPAAESLGYDSDGREIMGVDIYLNPPRVDVFKGTPPAWSSFGNKTIWGGNEWVDDSPTRSDIEKRDKEITAYKNTLSAQQKENENKRTEAGKRLSAAIAAREKDENTLKTLRAGNADAADITRQEFRLLQAELREYGFRTEIAGYDALRLHTESRMLFADADSLRISPREARSLIEQAEKRQKDAQNADKKAADMLAEYERRKGILDTRLSELEKNGGAALAVLDAQQARLLGQQTRNDRAISEARNKLSSVTESLNTARNALTRAEQQLTQQKNTPDGKTIVSPEKFPGRSSTNHSIVVSGDPRFAGTIKITTSAVIDNRANLNYLLSHSGLDYKRNILNDRNPVVTEDVEGDKKIYNAEVAEWDKLRQRLLDARNKITSAESAVNSARNNLSARTNEQKHANDALNALLKEKENIRNQLSGINQKIAEEKRKQDELKATKDAINFTTEFLKSVSEKYGAKAEQLAREMAGQAKGKKIRNVEEALKTYEKYRADINKKINAKDRAAIAAALESVKLSDISSNLNRFSRGLGYAGKFTSLADWITEFGKAVRTENWRPLFVKTETIIAGNAATALVALVFSILTGSALGIIGYGLLMAVTGALIDESLVEKANKFWGIYINCDFLL
modifications: The peptide of PMC-SA3
notes: Staphylococcus aureus pheromone AgrD III linked to C-terminus of allosteric colicin Ia′; 17; plasmid pBHC-SA3
- bacteriostasis effect on growth of methicillin-resistant Staphylococcus aureus (bacteria growth curve) [6]: still less better
